We go through 7 compounds from patent publication US10265692B2, “Ex vivo methods for predicting and confirming in vivo metabolism of pharmaceutically active compounds” (Empiriko Corporation, priority 2013, dated 2019).

Data set [1] is described as follows: Furosemide oxidation by conventional method with octabromo tetrakis(2,6-dichlorophenyl)porphyrin Fe(III)Cl and hydrogen peroxide, with or without imidazole co-catalyst, metabolites by LC/MS-ESI. Format: in vitro ADME. As to conditions: DMSO, H2O2, 24 hours; for furosemide metabolites produced, No Co-Catalyst: control without imidazole; for furosemide metabolites produced, Imidazole Co-Catalyst: with imidazole co-catalyst. As for the experimental part: Furosemide API (12.5 mg, 0.0378 mmol) in DMSO (0.1 M) was added to octabromo tetrakis(2,6-dichlorophenyl)porphyrin Fe(III)Cl (0.6 mg, 0.000378 mmol), followed by imidazole (0.13 mg, 0.00189 mmol). Over a 1 hour period, 50% w/w hydrogen peroxide (6.44 uL, […]) was added dropwise. An additional amount of hydrogen peroxide was added after 2 hours. The reaction was monitored by LC and stopped after 24 hours.
A control reaction was run under the exact parameters as stated above, without the addition of imidazole as a co-catalyst.
Samples analyzed according to parameters in Example 1.

Data set [2] is described as follows: Ex vivo prediction of drug-to-drug interaction: microwave oxidation of drug mixtures with Octabromo tetrakis(2,6-dichlorophenyl)porphyrin Fe(III)Cl and sodium hypochlorite, metabolites by LC/MS. The note with it: saxagliptin reacted in mixture with Metformin, porphyrin Fe(III)Cl catalyst, NaOCl.
Procedure: Metformin and Saxagliptin Mixture Microwave Protocol: Metformin Hydrochloride (8.19 mg, 0.06341 mmol) in 1:0.25 mL acetonitrile:water was reacted with potassium carbonate (10.96 mg, 0.07926) and stirred at 40° C. for 30 minutes in a microwave tube. Saxagliptin API (20.0 mg, 0.06341 mmol) extracted using 40 mL 1:1 methanol:ethanol, filtered and concentrated in vacuo. The resulting solid taken up in 2:0.25 mL acetonitrile:water and transferred to microwave tube. Octabromo tetrakis(2,6-dichlorophenyl)porphyrin Fe(III)Cl (10.21 mg, 0.006341 mmol) then added, followed by sodium hypochlorite (156.6 uL, 0.3171 mmol). Reaction run in the microwave at 80° C. for 30 minutes (CC-03-149A).

With `NS(=O)(=O)c1cc2c(cc1Cl)N1CC(=O)C=CC1OC2=O` (stereo not shown) [FUR1], in data set [1], the “furosemide metabolites produced, No Co-Catalyst” value was “Present” and the “furosemide metabolites produced, Imidazole Co-Catalyst” value is recorded as “Present”. In the case of `NS(=O)(=O)c1cc(C(=O)[O-])c(-[n+]2cccc(O)c2)cc1Cl` [FUR2], in data set [1], the “furosemide metabolites produced, No Co-Catalyst” value was “Present” and the “furosemide metabolites produced, Imidazole Co-Catalyst” value was “Present”. `Nc1cc(Cl)c(S(N)(=O)=O)cc1C(=O)O` [FUR3]: in data set [1], the “furosemide metabolites produced, No Co-Catalyst” value is on record as “Present” and the “furosemide metabolites produced, Imidazole Co-Catalyst” value was “Present”. Turning to `NS(=O)(=O)c1cc2c(cc1Cl)[N+]1(O)CC(=O)C(O)C(=O)C1OC2=O` (stereo not shown) [FUR4], the “furosemide metabolites produced, Imidazole Co-Catalyst” value in data set [1] is given as “Present”. For `NS(=O)(=O)c1cc2c(cc1Cl)[N+]1([O-])CC(=O)C=CC1OC2=O` (stereo not shown) [FUR5], the “furosemide metabolites produced, Imidazole Co-Catalyst” value in data set [1] is given as “Present”. Consider `NS(=O)(=O)c1cc(C(=O)O)c(NCC(=O)CCC(=O)O)cc1Cl` [FUR6], for which the “furosemide metabolites produced, Imidazole Co-Catalyst” value in data set [1] was “Present”. Turning to `N#C[C@@H]1C[C@@H]2C[C@@H]2N1C(=O)C(N)C12CC3CC(O)(CC(O)(C3)C1)C2` (stereo partly shown) [Hydroxy-Saxagliptin], the “Presence of Saxagliptin metabolites” value in data set [2] is listed as “Not Detected”.
